Values quoted from earlier work as cited in patent US5972639A, “Fluorescence-based assays for measuring cell proliferation” (Irori, priority 1997, dated 1999).

Key:
Conditions in all cases: cited from earlier work
[1] = tested on: Acid phosphatase
[2] = tested on: Alkaline phosphatase
[3] = biological target: Alkaline phosphatase (E. coli) (Escherichia coli, UniProt P00634)
Sequence of Alkaline phosphatase (E. coli) (P00634 22-471): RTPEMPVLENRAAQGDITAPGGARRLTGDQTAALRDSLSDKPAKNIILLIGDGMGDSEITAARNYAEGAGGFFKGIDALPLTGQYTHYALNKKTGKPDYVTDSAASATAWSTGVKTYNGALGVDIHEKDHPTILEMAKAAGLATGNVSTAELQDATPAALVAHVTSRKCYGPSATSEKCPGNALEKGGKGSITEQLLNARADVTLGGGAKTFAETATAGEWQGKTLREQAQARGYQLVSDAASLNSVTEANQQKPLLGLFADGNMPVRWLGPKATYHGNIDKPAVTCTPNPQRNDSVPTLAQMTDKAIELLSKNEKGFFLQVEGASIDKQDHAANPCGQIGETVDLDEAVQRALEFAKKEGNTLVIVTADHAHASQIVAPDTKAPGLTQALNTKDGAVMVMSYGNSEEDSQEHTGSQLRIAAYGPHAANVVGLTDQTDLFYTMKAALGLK

Row | Compound | Acid phosphatase, products identified [1] | Alkaline phosphatase, products identified [2] | Km [3]
1 | COC(=O)CCSP(=O)(O)O [S-[2-(Methoxy-carboxyl)ehtyl] phosphorothioate] | No cleavage | d, ^32 Pi | –
2 | CC(=O)NCCSP(=O)(O)O [N-Acetylcysteamine S-phosphate] | No cleavage | N-Acetylcysteamine | –
3 | O=[N+]([O-])c1ccc(OP(=O)(O)O)cc1 [p-NPP, p-nitrophenyl phosphate] | – | – | 94 µM
